Series [1] has as its target T1, PI3Kδ (Homo sapiens, UniProt O00329, S253N). The experiment in a line: Biochemical assay using 200 μM ATP, Delta.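 Further: radiometric filter-binding assay: PI3Kδ transfers ³²P from γ-[³²P]ATP onto PIP2/PS liposomes, counted by scintillation, enzyme-only wells as positive control, no-enzyme wells as background.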
Experimental: (§2) PI3Kδ catalyzes a phosphotransfer from γ-[^32P]ATP to PIP2/PS liposomes at the D3′ position of the PIP2 lipid inositol ring. This reaction is MgCl2 dependent and is quenched in high molarity potassium phosphate buffer pH 8.0 containing 30 mM EDTA. […] The reaction products (and all unlabelled products) are transferred to a 96-well, prewetted PVDF filter plate, filtered, and washed in high molarity potassium phosphate. Scintillant is added to the dried wells and the incorporated radioactivity is quantitated.
(§3) This dilution established a final concentration of 200 μM ATP in the reaction volume. The reaction was stopped with 150 μL quench buffer (1.0 M potassium phosphate pH 8.0, 30 mM EDTA). A portion of the quenched solution (180 μL) was then transferred to a PVDF filter plate (Millipore # MAIP NOB prewetted with sequential 200 μL washes of 100% methanol, water, and finally 1.0 M potassium phosphate pH 8.0 wash buffer).
(§4) The PVDF filter plate was aspirated under moderate vacuum (2-5 mm Hg), washed with 5×200 μL of wash buffer, and then dried by aspiration. The filter was subsequently blotted, allowed to air dry completely, and inserted into a Wallac counting cassette with 50 μL of Ecoscint scintillation cocktail added per well.
(§5) Subsequent selectivity assays were done similarly using the same 3× substrate stocks except they contained 0.05 mCi/mL γ[^32P]ATP and 3 mM PIP2. Subsequent selectivity assays also used the same 3× enzyme stocks, except they now contained 3 nM of any given PI3K isoform.
(§6) For all selectivity assays, the test compounds were weighed out and dissolved into 10-50 mM stocks in 100% DMSO (depending on their respective solubilities) and stored at −20° C. […] From these dilutions, 20 μL was added into the assay wells alongside water blanks used for the enzyme (positive) control and the no enzyme (background) control.
(§7) This selectivity protocol is identical to that described above, except the 3× stock ATP concentration was 600 μM.
The test system of series [2] is human neutrophils. The experiment in a line: fMLP-induced human neutrophil migration. The conditions noted are these: neutrophil (PMN) migration, read-out: Human PMN Migration (EC50). The series is classed as cell-based. On the procedure: Neutrophils have the intrinsic capacity to migrate through tissues, and are one of the first cell types to arrive at the sites of inflammation or tissue injury. The effect of D-000 on neutrophil migration towards a concentration gradient of fMLP was measured. The day before the migration assays were performed, 6-well plates were coated with recombinant ICAM-1/Fc fusion protein (Van der Vieren et al., Immunity, 3:683-690 (1995)) (25 μg/mL in bicarbonate buffer, pH 9.3) and left overnight at 4° C. After washing, 1% agarose solution, in RPMI-1640 with 0.5% bovine serum albumin (BSA), was added to wells with or without an inhibitor, and plates were placed into a refrigerator before punching holes in the gelled agarose to create plaques (1 central hole surrounded by 6 peripheral ones per well).
Human neutrophils were obtained as described above, and resuspended in RPMI medium supplemented with 0.5% BSA at 5×10^6 cells/mL. After combining equal volumes of neutrophil suspension and medium (either with DMSO or a serial dilution of the test compound in DMSO), neutrophils were aliquoted into the peripheral holes, while the central hole received fMLP (5 μM). Plates were incubated at 37° C. in the presence of 5% CO2 for 4 hr, followed by termination of migration by the addition of 1% glutaraldehyde solution in D-PBS. After removing the agarose layer, wells were washed with distilled water and dried.
Analysis of neutrophil migration was conducted on a Nikon DIAPHOT® inverted microscope (1× objective) video workstation using the NIH 1.61 program. Using Microsoft Excel and Table Curve 4 (SSPS Inc., Chicago Ill.) programs, a migration index was obtained for each of the studied conditions. Migration index was defined as the area under a curve representing number of migrated neutrophils versus the net distance of migration per cell.
Using the methods described in Examples 3-5, above, compounds of the invention were tested for inhibitory activity and potency in assays of stimulated B and T cell proliferation, neutrophil (PMN) migration, and neutrophil (PMN) elastase release. In Table 4, the values shown are effective concentrations of the compound (EC50; μM). Where no value is given, no assay was performed.

The target in series [3] is T2, PI3Kβ (Homo sapiens, UniProt P42338).
T2 construct: His tag (pFastbac HTa vector) (N); FLAG (N); made in house; host or cells: Sf21 insect cells (baculovirus)
The experiment in a line: Biochemical assay using 200 μM ATP, Beta.

The target of series [4] is T3, PI3Kγ (Homo sapiens, UniProt P48736).
T3 construct: His tag (pFastbac HTb vector) (N); FLAG (N); made in house; host or cells: Sf21 insect cells (baculovirus)
As to the kind of experiment: Biochemical assay using 200 μM ATP, Gamma.
Experimental: as §2, §3, §4, §5, §6, §7

Series [5] concerns Murine splenocytes (Balb/c). As to the kind of experiment: B cell proliferation in response to cell surface IgM stimulation. The conditions noted are these: Mus musculus, Splenocyte; stimulated B cell proliferation; read-out: Mouse BCR Stim (EC50). The class given is cell-based. The procedure, abridged: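 Balb/c splenocytes (2×10^5/well, 10% FBS/RPMI) preincubated 30-60 min with inhibitor, then stimulated with goat F(ab′)2 anti-mouse IgM μ-chain at 25 μg/mL final. Cultured 3 days at 37° C., [^3H]-thymidine pulsed for final 4 h; incorporation counted as CPM. Values are EC50 (μM).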

Series [6] concerns the target T2, PI3Kβ. As to the kind of experiment: Biochemical assay of PI3K potency and selectivity using 20 μM ATP, Beta. To be noted: 20 μM ATP; for Beta/Delta Ratio: ratio of IC50 values, > = hypothetical ratio with 100 μM substituted for the missing IC50; for IC50: read-out: Beta IC50. The procedure, abridged: (§1)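 Lipid-kinase radiometric assay with γ-[32P]ATP (20 μM ATP) on PIP2/PS liposomes in 20 mM HEPES pH 7.4; the 3× substrate mix held […] and 6 μM liposomes.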

Series [7] concerns the target T4, PI3Kα (Homo sapiens, UniProt P42336).
T4 construct: His tag (pFastbac HTb vector) (N); FLAG; made in house; host or cells: Sf21 insect cells (baculovirus)
The experiment in a line: Biochemical assay of PI3K potency and selectivity using 20 μM ATP, Alpha. The conditions noted are these: for Alpha/Delta Ratio: 20 μM ATP, ratio of IC50 values, > = hypothetical ratio with 100 μM substituted for the missing IC50; for remaining activity at 100 µM: read-out: percent activity remaining at 100 μM, 20 μM ATP, 100 μM compound did not inhibit by at least 50%. Summed up:
as §1

For series [8], the target named is T4, PI3Kα. The experiment in a line: Biochemical assay using 200 μM ATP, Alpha.
The next series deals with T cell proliferation. The experiment in a line: Stimulated T cell proliferation (Mouse TCE Stim, Table 4). The series is classed as cell-based. The conditions noted are these: stimulated T cell proliferation, read-out: Mouse TCE Stim (EC50).
For series [9], the system named is human neutrophils. The experiment in a line: Elastase exocytosis from neutrophils (fMLP-induced). The class given is cell-based. The conditions noted are these: neutrophil (PMN) elastase release. The procedure, abridged: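 Human blood neutrophils (Ficoll-Hypaque) treated with compound or DMSO, then stimulated 90 min at 37 °C with 1 μM fMLP plus 0.01 mg/mL cytochalasin B, 1.0 μM NaN3 and 5 μg/mL L-methionine. Supernatant elastase read at 410 nm over 2 h on MeO-suc-AAPV-pNA, normalized to uninhibited; EC50 in μM.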

Series [10] addresses T1, PI3Kδ. The experiment in a line: Biochemical assay of PI3K potency and selectivity using 20 μM ATP, Delta. More on the design: His tag (pFastbac HTb vector) (N); FLAG; made in house; host or cells: Sf21 insect cells (baculovirus). The conditions noted are these: 20 μM ATP; read-out: Delta IC50. The procedure, abridged:
as §1

Series [11] deals with T3, PI3Kγ. As to the kind of experiment: Biochemical assay of PI3K potency and selectivity using 20 μM ATP, Gamma. An excerpt:
Recombinant baculoviruses containing the above clones were generated using manufacturer's recommended protocol (Life Technologies). Baculoviruses expressing His-tagged p110α, p110γ, or p110δ catalytic subunit and p85 subunit were coinfected into Sf21 insect cells. To enrich the heterodimeric enzyme complex, an excess amount of baculovirus expressing p85 subunit was infected, and the His-tagged p110 catalytic subunit complexed with p85 was purified on nickel affinity column. […] In an alternate approach, p101 can be cloned into baculovirus, to permit coexpression with its preferred binding partner p110γ. […]

Some results are limits rather than exact numbers.

T2 sequence (P42338 whole entry): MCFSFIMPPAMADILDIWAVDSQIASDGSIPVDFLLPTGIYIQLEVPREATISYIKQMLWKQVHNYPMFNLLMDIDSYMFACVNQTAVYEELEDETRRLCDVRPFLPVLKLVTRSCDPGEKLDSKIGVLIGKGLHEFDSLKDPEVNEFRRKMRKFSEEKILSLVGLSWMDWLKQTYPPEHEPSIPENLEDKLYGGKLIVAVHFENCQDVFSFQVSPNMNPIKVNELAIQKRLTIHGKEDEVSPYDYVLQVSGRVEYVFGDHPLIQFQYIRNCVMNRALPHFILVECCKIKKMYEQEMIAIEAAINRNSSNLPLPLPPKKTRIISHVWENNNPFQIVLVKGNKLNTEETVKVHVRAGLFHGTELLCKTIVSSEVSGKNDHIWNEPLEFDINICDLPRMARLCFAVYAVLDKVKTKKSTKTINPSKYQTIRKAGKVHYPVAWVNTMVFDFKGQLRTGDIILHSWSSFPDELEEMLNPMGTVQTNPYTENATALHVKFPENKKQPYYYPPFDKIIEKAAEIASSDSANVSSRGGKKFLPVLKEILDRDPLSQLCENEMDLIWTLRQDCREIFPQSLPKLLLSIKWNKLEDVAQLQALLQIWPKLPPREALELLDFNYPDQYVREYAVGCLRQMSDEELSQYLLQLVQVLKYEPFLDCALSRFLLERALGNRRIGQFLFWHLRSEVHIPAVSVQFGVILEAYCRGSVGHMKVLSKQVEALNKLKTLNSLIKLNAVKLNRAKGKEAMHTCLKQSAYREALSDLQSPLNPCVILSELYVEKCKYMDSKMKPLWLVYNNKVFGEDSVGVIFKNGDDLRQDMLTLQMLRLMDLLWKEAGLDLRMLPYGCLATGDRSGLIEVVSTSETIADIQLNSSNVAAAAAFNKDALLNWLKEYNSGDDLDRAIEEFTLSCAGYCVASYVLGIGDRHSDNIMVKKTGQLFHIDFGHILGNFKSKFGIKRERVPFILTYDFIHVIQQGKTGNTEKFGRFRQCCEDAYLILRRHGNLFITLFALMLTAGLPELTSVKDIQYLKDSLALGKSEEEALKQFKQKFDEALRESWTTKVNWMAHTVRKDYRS
T2 sequence (P27986 whole entry partner): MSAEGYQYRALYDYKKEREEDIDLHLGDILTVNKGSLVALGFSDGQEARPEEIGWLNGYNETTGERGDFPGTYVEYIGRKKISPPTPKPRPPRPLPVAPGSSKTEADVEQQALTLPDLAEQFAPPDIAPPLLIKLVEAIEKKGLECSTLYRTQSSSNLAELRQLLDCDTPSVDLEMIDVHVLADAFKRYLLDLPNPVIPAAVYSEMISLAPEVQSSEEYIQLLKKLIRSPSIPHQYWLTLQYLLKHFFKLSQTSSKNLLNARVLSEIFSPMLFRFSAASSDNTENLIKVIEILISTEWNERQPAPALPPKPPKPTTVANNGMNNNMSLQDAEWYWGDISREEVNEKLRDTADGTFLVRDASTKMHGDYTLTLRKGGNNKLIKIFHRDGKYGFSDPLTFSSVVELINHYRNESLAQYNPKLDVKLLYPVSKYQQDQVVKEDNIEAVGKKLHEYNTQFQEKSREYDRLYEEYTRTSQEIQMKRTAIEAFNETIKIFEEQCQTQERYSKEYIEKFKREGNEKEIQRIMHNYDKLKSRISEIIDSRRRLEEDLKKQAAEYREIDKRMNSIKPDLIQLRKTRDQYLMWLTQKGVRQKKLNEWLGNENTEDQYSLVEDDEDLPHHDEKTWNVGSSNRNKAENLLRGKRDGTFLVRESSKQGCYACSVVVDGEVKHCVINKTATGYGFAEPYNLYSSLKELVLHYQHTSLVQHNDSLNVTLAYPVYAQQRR
T3 sequence (P48736 whole entry): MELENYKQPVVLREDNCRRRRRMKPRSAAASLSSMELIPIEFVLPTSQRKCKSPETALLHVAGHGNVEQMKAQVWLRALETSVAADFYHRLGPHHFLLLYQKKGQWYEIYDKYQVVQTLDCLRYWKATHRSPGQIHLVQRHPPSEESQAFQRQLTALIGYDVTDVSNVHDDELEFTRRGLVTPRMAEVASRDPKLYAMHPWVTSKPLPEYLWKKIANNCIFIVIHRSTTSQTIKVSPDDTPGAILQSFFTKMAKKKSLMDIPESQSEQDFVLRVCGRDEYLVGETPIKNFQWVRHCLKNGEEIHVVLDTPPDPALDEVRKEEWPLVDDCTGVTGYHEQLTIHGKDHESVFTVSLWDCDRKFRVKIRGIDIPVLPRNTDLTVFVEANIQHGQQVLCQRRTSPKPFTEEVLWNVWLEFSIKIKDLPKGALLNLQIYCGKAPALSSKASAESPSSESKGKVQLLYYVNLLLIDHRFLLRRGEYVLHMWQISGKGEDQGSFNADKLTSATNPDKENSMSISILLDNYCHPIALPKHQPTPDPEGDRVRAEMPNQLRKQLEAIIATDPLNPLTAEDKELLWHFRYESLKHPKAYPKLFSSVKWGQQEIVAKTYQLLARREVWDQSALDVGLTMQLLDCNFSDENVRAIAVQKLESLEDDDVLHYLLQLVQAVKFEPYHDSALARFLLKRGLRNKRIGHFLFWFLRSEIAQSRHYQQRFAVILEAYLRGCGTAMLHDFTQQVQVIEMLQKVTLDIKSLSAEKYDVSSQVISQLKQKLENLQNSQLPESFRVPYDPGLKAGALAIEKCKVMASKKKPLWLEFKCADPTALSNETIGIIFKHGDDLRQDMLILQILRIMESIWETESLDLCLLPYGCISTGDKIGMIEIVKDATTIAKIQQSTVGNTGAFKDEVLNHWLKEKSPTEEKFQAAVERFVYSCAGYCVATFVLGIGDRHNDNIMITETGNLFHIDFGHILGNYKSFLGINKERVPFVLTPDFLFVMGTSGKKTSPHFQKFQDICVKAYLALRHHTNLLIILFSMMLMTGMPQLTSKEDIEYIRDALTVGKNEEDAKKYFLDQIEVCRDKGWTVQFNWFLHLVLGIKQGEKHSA
T1 sequence (O00329 whole entry S253N): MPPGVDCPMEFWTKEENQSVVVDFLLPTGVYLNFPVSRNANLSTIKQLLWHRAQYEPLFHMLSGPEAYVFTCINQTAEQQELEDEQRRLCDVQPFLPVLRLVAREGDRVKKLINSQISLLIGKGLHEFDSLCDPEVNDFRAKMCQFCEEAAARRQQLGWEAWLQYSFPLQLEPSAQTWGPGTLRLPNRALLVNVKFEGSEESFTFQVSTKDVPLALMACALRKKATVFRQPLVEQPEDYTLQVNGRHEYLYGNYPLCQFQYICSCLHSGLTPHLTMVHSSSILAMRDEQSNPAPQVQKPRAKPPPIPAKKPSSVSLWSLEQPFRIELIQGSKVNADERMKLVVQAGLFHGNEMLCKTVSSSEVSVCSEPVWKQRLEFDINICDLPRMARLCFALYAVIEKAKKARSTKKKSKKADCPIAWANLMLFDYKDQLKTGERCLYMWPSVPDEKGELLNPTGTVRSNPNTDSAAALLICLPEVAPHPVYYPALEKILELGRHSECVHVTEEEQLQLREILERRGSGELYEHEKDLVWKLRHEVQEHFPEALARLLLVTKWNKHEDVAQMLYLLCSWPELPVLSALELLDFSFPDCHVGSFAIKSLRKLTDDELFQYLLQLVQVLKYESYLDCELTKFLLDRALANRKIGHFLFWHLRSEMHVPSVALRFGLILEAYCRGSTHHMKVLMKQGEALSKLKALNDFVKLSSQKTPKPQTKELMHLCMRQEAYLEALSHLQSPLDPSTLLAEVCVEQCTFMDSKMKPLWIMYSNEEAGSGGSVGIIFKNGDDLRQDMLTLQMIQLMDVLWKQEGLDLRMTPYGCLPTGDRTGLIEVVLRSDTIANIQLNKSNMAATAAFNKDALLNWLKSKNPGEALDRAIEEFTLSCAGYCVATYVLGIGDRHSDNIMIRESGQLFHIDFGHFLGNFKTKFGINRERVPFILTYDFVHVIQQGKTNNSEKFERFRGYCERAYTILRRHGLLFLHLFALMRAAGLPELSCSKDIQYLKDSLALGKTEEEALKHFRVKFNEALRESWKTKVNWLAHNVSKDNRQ
T1 sequence (P27986 whole entry partner): as the sequence (P27986 whole entry partner) above
T4 sequence (P42336 whole entry): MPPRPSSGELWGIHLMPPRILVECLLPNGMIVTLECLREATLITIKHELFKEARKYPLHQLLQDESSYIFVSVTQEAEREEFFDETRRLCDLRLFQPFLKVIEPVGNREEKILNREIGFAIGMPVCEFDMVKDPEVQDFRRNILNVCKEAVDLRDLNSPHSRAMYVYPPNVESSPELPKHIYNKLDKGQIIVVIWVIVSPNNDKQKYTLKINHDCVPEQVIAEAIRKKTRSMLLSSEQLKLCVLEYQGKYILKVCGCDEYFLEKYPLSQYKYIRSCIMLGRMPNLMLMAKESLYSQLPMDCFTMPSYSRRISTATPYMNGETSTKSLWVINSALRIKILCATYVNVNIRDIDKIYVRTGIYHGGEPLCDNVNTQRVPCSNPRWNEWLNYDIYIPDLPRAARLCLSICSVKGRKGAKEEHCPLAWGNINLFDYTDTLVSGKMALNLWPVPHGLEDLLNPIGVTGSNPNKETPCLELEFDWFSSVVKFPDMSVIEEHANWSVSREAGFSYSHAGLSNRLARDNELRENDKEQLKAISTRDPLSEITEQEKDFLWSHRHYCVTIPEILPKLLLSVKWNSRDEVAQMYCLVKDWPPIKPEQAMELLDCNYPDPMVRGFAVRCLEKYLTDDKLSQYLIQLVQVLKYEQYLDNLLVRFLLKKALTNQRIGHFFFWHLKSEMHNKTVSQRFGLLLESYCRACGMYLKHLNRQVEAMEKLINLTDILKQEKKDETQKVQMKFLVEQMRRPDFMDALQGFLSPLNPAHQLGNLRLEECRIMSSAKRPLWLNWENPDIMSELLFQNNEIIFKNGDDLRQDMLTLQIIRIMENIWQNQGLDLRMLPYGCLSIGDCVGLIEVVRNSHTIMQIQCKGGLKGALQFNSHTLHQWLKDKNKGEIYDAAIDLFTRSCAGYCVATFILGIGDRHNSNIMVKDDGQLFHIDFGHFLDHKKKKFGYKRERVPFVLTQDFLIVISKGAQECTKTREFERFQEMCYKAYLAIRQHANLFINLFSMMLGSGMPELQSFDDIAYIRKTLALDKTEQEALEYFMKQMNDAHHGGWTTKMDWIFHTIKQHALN
T4 sequence (P27986 whole entry partner): as the sequence (P27986 whole entry partner) above

`COc1ccccc1-n1c(CSc2ncnc3[nH]cnc23)nc2ccccc2c1=O` [Compound D-036, 3-(2-methoxyphenyl)-2-(9H-purin-6-ylsulfanylmethyl)-3H-quinazolin-4-one]: the IC50 at PI3Kδ [1] is 4.1 µM; against PI3Kγ [4], 72 µM. In addition, the EC50 in the series with human neutrophils [2] was found to be 0.2 µM; in series [5], 0.9 ± 0.04 µM; in the series with T cell proliferation, 4.1 µM; in the series on human neutrophils [9], 5.5 ± 5 µM. Also, the “Beta/Delta Ratio” value on PI3Kβ [3] is 36; on PI3Kβ [6], 69. In addition, the “Gamma/Delta Ratio” value on PI3Kγ [4] is 18. The “Alpha/Delta Ratio” value on PI3Kα [7] is >226; at PI3Kα [8], 48. Also, at PI3Kα [7], the remaining activity at 100 µM turned out to be 63%.

On to `Nc1ncnc2c1ncn2Cc1nc2cccc(F)c2c(=O)n1-c1ccccc1Cl` [Compound D-005, 2-(6-Aminopurin-9-ylmethyl)-3-(2-chlorophenyl)-5-fluoro-3H-quinazolin-4-one], for which the melting point was 159 to 172 °C (dec.). On PI3Kδ [1], this compound showed an IC50 of 11 µM. Moreover, the “Beta/Delta Ratio” value at PI3Kβ [3] amounted to 16. The “Gamma/Delta Ratio” value at PI3Kγ [4] turned out to be 17. Moreover, the EC50 in series [5] amounted to 0.7 ± 0.1 µM. On PI3Kβ [6], the “Beta/Delta Ratio” value worked out at 56 and the IC50 is 46 µM. For the same compound, on PI3Kα [7], the “Alpha/Delta Ratio” value is reported as >121 and the remaining activity at 100 µM is 89%. Also, the IC50 on PI3Kδ [10] came out at 0.8 µM. Moreover, the “Alpha/Delta Ratio” value at PI3Kα [8] worked out at 20. In addition, the EC50 in the series on T cell proliferation came out at 3.9 µM. The same compound had an EC50 in the series on human neutrophils [9] of 4.3 ± 1 µM.

As to `Cc1cccc2nc(Cn3cnc4c(N)ncnc43)n(-c3ccccc3Cl)c(=O)c12` [Compound D-007, 2-(6-Aminopurin-9-ylmethyl)-3-(2-chlorophenyl)-5-methyl-3H-quinazolin-4-one], the melting point fell in the range of 190.7 to 190.9 °C. At PI3Kδ [1], the IC50 came out at 0.73 ± 0.2 µM. At PI3Kβ [3], the “Beta/Delta Ratio” value is listed as 99 and the IC50 came out at 72 ± 12 µM. Further, on PI3Kγ [4], the “Gamma/Delta Ratio” value turned out to be 121 and the IC50 was determined as 88 ± 4 µM. Besides, the EC50 in [5] is 0.3 ± 0.1 µM. On PI3Kβ [6], the “Beta/Delta Ratio” value was 188 and the IC50 is 30 µM. Besides, at PI3Kα [7], the “Alpha/Delta Ratio” value was >619 and the remaining activity at 100 µM worked out at 82%. On PI3Kδ [10], the IC50 worked out at 0.16 µM. Besides, the “Alpha/Delta Ratio” value on PI3Kα [8] was determined as 252. In the series with T cell proliferation, the EC50 is 4.2 µM. Besides, the EC50 with human neutrophils [9] is 0.4 µM.

In turn, `Nc1ncnc2c1ncn2Cc1nc2cccc(Cl)c2c(=O)n1-c1ccccc1Cl` [Compound D-006, 2-(6-Aminopurin-o-ylmethyl)-5-chloro-3-(2-chlorophenyl)-3H-quinazolin-4-one] came in with a melting point of 245.7 to 246 °C. For the same compound, the IC50 against PI3Kδ [1] was determined as 0.92 ± 0.1 µM. On PI3Kβ [3], the “Beta/Delta Ratio” value worked out at 48 and the IC50 came out at 44 ± 5 µM. For the same compound, at PI3Kγ [4], the “Gamma/Delta Ratio” value came to 95 and the IC50 was found to be 87 ± 33 µM. The EC50 in series [5] amounted to 0.2 ± 0.1 µM. On PI3Kβ [6], the “Beta/Delta Ratio” value is given as 38 and the IC50 was 6 µM. At PI3Kα [7], the “Alpha/Delta Ratio” value was >652 and the remaining activity at 100 µM came out at 78%. Moreover, the IC50 on PI3Kδ [10] came out at 0.15 µM. Also, the “Alpha/Delta Ratio” value on PI3Kα [8] amounted to 226. Besides, the EC50 with T cell proliferation was found to be 5.3 µM. The compound also yielded an EC50 in the series on human neutrophils [9] of 0.3 ± 0.1 µM.

With `O=c1c2ccccc2nc(CSc2ncnc3[nH]cnc23)n1Cc1ccccc1` [Compound D-037, 3-benzyl-2-(9H-purin-6-ylsulfanylmethyl)-3H-quinazolin-4-one], the IC50 stood at 3.5 µM against PI3Kδ [1], 45 µM against PI3Kγ [4], 80 µM on PI3Kβ [6] and 0.8 µM at PI3Kδ [10]. Moreover, the EC50 stood at 2 µM with human neutrophils [2], 1.2 ± 0.4 µM in series [5] and 1.3 ± 0.4 µM in the series on human neutrophils [9]. Also, the “Beta/Delta Ratio” value at PI3Kβ [3] is reported as 33; on PI3Kβ [6] it was 100. The “Gamma/Delta Ratio” value at PI3Kγ [4] was found to be 13. Further, the “Alpha/Delta Ratio” value on PI3Kα [7] was >125; on PI3Kα [8] it was 64. Also, on PI3Kα [7], the remaining activity at 100 µM was found to be 64%.

In the case of `CCCCn1c(CSc2ncnc3[nH]cnc23)nc2ccccc2c1=O` [Compound D-038, 3-butyl-2-(9H-purin-6-ylsulfanylmethyl)-3H-quinazolin-4-one], the IC50 turned out to be 1.8 µM on PI3Kδ [1], 60 µM at PI3Kγ [11], 55 µM against PI3Kγ [4] and 0.6 µM at PI3Kδ [10]. The “Beta/Delta Ratio” value is on record as 82 on PI3Kβ [3] and >170 at PI3Kβ [6]. Further, the “Gamma/Delta Ratio” value was 100 at PI3Kγ [11] (ratio of IC50 values) and 31 at PI3Kγ [4]. In addition, the EC50 in [5] came to 1.4 ± 0.1 µM; in the series on T cell proliferation it was 2.9 µM; with human neutrophils [9], 5 µM. In addition, the remaining activity at 100 µM on PI3Kβ [6] (read-out: Beta: percent activity remaining at 100 μM, 100 μM compound did not inhibit by at least 50%) is 63%; at PI3Kα [7] it was 77%. The results for the “Alpha/Delta Ratio” value at PI3Kα [7] and on PI3Kα [8] were >167 and 77, respectively.

`O=c1c2ccc(F)cc2nc(CSc2ncnc3[nH]cnc23)n1-c1ccccc1Cl` [Compound D-022, 3-(2-Chlorophenyl)-7-fluoro-2-(9H-purin-6-ylsulfanylmethyl)-3H-quinazolin-4-one] showed a melting point of 151.4 to 154.2 °C. Further, the IC50 on PI3Kδ [1] is 4.2 µM. This compound showed an IC50 at PI3Kγ [11] of 40 µM. Also, the EC50 in series [5] turned out to be 1.8 µM. For the same compound, the IC50 at PI3Kβ [6] turned out to be 110 µM. In addition, the IC50 on PI3Kδ [10] amounted to 0.8 µM. Further, the EC50 with T cell proliferation worked out at 2.3 µM.

These data come from patent US20200061062A1, “INHIBITORS OF HUMAN PHOSPHATIDYLINOSITOL 3-KINASE DELTA” (ICOS Corporation, priority 2000, published 2020).
